Data: patent US12187710B2, “Salt of Syk inhibitor and crystalline form thereof” (CHIA TAI TIANQING PHARMACEUTICAL GROUP CO., LTD., priority 2018, dated 2025)
Counter-ions that a name gives are not always drawn.

Key:
[1] = Hygroscopicity by dynamic vapor sorption (DVS); format: physicochemical
Protocol: Instrument: SMS DVS Advantage;
The DVS parameters are as follows:
Balancing: dm/dt=0.01%/min (shortest: 10 min, longest: 180 min)
drying: drying at 0% RH for 120 min
RH (%) test gradient: 10%
Range of RH (%) test gradient: 0%-90%-0%

[2] = Stability of crystalline form suspended in organic solvent (XRPD); format: physicochemical; conditions: methanol, ethanol, ethyl acetate, acetone, acetonitrile, tetrahydrofuran, 1,4-dioxane, n-hexane; 20° C. and 50° C., 24 h
Protocol: After being added with methanol (4 mL), the glass vial was placed on a magnetic stirrer, and the mixture was stirred at 20° C. and 50° C., each for 24 h.
According to the above method, ethanol, ethyl acetate, acetone, acetonitrile, tetrahydrofuran, 1,4-dioxane and n-hexane were used as solvents to conduct parallel tests.

[3] = Stability of crystalline form at high temperature, high humidity and illumination (XRPD); format: physicochemical
Text: The vials in which the samples were placed at high temperature and high humidity were sealed with aluminum foil, and small holes were provided in the aluminum foil to ensure that the samples were sufficiently contacted with atmospheric air. The vial in which the sample was placed under strong light was placed open without sealing with aluminum foil. The samples placed under different conditions were taken and tested for XRPD spectrum on day 5 and day 10.

AKT phosphorylation = experiment: In vitro test of inhibition on AKT phosphorylation in IgM-stimulated Ramos cells (ELISA); format: cell-based; conditions: anti-human IgM stimulation
Text: 5.1 Purpose of experiment: to detect the protein kinase AKT phosphorylation in cells by enzyme-linked immunosorbent assay (ELISA), and evaluate the inhibition of the compound on the AKT phosphorylation by taking the half-inhibitory concentration (IC50) value of the compound as an index. […]

Compound	ΔW (DVS weight gain) ([1]; 25° C., RH 0%-90%-0%)	Hygroscopicity ([1]; 25±1° C. and 80±2% RH)	XRPD spectrum after suspension in solvent [2]	Crystalline form ([3]; Day 0 (initial), XRPD)	Crystalline form ([3]; High humidity (room temperature/relative humidity 92.5%, open), Day 5, XRPD)	Crystalline form ([3]; High humidity (room temperature/relative humidity 92.5%, open), Day 10, XRPD)	Crystalline form ([3]; High temperature (60° C., open), Day 5, XRPD)	Crystalline form ([3]; High temperature (60° C., open), Day 10, XRPD)	Crystalline form ([3]; Illumination (total illuminance of 1.2 × 10^6 Lux·hr/near UV energy of 200 w·hr/m^2, open), XRPD)	Stability under high temperature, high humidity and illumination ([3]; overall conclusion)	IC50 (AKT phosphorylation)
Cn1c(=O)c(Nc2ccc(N3CCN(C4COC4)CC3)cn2)cc2c(F)c(-c3cc[nH]n3)ccc21 [5-fluoro-1-methyl-3-((5-(4-(oxetan-3-yl)piperazin-1-yl)pyridin-2-yl)amino)-6-(1H-pyrazol-3-yl)quinolin-2(1H)-one hydrochloride]	1.371%	less hygroscopic	doesn't change	Form A crystal	Form A crystal	Form A crystal	Form A crystal	Form A crystal	Form A crystal	good stability	
Cn1c(=O)c(Nc2ccc(N3CCN(C4COC4)CC3)cn2)cc2c(F)c(-c3cc[nH]n3)ccc21 [Compound of formula I, 5-fluoro-1-methyl-3-((5-(4-(oxetan-3-yl)piperazin-1-yl)pyridin-2-yl)amino)-6-(1H-pyrazol-3-yl)quinolin-2(1H)-one]											170 nM
